{"source": "paper PMC5282848", "about": "“Ancient coexistence of norepinephrine, tyramine, and octopamine signaling in bilaterians” (BMC Biology, 2017)", "assay_in_all_cases": "Ca2+ mobilization, GFP-apoaequorin luminescence in CHO-K1 with Gα-16", "key": {"[1]": {"test_system": "T1, S. kowalevskii Octopamine α", "T1 construct": "gene Octopamine alpha receptor; full-length in pcDNA3.1(+), expressed in CHO-K1 with Gα-16 and GFP-apoaequorin", "format": "cell-based, Saccoglossus kowalevskii", "settings": "agonist, HBSS, 1.8 mM Ca2+, 10 mM glucose", "excerpt": "Ca2+ mobilization, GFP-apoaequorin luminescence in CHO-K1 with Gα-16 on S. kowalevskii Octopamine α"}, "[2]": {"target": "T2, P. dumerilii Octopamine α (Platynereis dumerilii, UniProt A0A1J0F445)", "T2 construct": "full-length in pcDNA3.1(+), expressed in CHO-K1 with Gα-16 and GFP-apoaequorin", "T2 sequence (A0A1J0F445 1-603)": "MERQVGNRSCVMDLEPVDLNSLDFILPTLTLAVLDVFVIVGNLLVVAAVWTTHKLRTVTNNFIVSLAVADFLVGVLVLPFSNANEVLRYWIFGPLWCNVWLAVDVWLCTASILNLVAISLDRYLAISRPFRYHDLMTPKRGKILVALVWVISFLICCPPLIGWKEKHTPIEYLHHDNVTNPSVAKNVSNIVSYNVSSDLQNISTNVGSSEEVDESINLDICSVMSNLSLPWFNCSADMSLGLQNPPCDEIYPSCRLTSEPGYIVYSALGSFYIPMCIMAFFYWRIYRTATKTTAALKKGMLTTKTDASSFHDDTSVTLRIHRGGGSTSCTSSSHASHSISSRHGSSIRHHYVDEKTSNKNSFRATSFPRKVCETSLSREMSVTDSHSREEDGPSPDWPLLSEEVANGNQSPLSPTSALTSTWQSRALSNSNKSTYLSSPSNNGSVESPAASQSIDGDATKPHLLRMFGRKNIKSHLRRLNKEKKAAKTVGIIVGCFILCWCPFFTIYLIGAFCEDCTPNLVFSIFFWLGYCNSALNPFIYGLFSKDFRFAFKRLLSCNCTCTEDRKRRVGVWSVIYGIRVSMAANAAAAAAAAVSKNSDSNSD", "format": "cell-based", "excerpt": "Ca2+ mobilization, GFP-apoaequorin luminescence in CHO-K1 with Gα-16 on P. dumerilii Octopamine α"}, "[3]": {"target": "T3, S. kowalevskii Tyramine-1 (Saccoglossus kowalevskii, UniProt A0ABM0H1U8)", "T3 construct": "gene LOC100368763; full-length in pcDNA3.1(+), expressed in CHO-K1 with Gα-16 and GFP-apoaequorin", "T3 sequence (A0ABM0H1U8 1-430)": "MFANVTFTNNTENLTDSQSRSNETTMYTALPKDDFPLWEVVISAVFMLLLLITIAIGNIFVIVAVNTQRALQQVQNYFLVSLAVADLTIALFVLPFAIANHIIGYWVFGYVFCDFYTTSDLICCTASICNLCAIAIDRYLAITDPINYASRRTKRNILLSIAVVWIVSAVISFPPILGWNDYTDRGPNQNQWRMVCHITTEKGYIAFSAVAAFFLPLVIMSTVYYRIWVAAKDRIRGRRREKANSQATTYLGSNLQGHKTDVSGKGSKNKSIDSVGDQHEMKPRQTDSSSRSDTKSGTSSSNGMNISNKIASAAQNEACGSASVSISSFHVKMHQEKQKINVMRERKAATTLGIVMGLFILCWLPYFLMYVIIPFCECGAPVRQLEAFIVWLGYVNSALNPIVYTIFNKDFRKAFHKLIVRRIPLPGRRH", "format": "cell-based", "excerpt": "Ca2+ mobilization, GFP-apoaequorin luminescence in CHO-K1 with Gα-16 on S. kowalevskii Tyramine-1"}, "P. dumerilii Tyramine-1": {"target": "T4, P. dumerilii Tyramine-1 (Platynereis dumerilii, UniProt A0A0K0PUV5)", "T4 construct": "full-length in pcDNA3.1(+), expressed in CHO-K1 with Gα-16 and GFP-apoaequorin", "T4 sequence (A0A0K0PUV5 1-428)": "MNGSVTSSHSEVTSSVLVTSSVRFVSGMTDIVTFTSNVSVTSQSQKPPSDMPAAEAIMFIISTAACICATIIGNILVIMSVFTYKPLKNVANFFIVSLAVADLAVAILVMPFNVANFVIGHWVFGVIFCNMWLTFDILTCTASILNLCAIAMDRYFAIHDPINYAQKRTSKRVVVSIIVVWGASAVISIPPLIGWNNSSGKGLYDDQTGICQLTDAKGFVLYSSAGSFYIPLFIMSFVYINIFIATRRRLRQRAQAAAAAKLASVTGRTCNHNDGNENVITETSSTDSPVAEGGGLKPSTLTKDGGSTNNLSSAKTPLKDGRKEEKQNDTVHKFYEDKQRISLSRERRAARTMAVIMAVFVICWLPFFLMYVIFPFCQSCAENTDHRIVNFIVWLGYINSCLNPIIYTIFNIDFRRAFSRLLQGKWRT", "format": "cell-based", "excerpt": "Ca2+ mobilization, GFP-apoaequorin luminescence in CHO-K1 with Gα-16 on P. dumerilii Tyramine-1"}, "P. dumerilii Tyramine-2": {"target": "T5, P. dumerilii Tyramine-2 (Platynereis dumerilii, UniProt A0A1J0F4P1)", "T5 construct": "full-length in pcDNA3.1(+), expressed in CHO-K1 with Gα-16 and GFP-apoaequorin", "T5 sequence (A0A1J0F4P1 1-460)": "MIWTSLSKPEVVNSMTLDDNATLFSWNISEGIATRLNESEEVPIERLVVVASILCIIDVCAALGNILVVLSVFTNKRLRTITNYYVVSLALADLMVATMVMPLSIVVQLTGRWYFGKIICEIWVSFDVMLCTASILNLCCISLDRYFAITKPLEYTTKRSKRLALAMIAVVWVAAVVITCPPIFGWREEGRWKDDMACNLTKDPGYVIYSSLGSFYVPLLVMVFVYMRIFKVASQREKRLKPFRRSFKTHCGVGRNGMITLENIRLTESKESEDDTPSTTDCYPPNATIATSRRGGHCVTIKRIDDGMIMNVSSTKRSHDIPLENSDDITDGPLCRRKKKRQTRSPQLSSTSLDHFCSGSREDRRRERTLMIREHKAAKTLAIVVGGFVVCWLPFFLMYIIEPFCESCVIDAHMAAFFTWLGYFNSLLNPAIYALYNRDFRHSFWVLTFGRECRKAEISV", "format": "cell-based", "excerpt": "Ca2+ mobilization, GFP-apoaequorin luminescence in CHO-K1 with Gα-16 on P. dumerilii Tyramine-2"}, "[4]": {"target": "T6, S. kowalevskii Tyramine-2B (Saccoglossus kowalevskii, UniProt A0ABM0LZ08)", "T6 construct": "gene LOC102801068; full-length in pcDNA3.1(+), expressed in CHO-K1 with Gα-16 and GFP-apoaequorin", "T6 sequence (A0ABM0LZ08 1-489)": "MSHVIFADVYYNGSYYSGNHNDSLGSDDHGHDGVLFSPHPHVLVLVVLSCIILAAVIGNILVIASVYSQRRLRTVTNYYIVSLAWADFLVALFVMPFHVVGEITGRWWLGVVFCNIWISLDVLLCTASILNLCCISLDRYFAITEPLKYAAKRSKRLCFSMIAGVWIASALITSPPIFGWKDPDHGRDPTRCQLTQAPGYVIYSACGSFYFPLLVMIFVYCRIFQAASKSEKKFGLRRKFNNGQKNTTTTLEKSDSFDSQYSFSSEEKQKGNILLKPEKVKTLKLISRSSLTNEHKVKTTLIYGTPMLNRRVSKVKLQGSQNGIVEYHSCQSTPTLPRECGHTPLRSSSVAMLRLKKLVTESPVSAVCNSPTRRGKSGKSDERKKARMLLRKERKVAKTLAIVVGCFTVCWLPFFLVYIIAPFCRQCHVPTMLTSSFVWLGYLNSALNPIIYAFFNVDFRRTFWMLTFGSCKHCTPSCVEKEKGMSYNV", "format": "cell-based", "excerpt": "Ca2+ mobilization, GFP-apoaequorin luminescence in CHO-K1 with Gα-16 on S. kowalevskii Tyramine-2B"}, "[5]": {"target": "T7, S. kowalevskii Tyramine-2A (Saccoglossus kowalevskii, UniProt A0ABM0GNT8)", "T7 construct": "gene LOC100366600; full-length in pcDNA3.1(+), expressed in CHO-K1 with Gα-16 and GFP-apoaequorin", "T7 sequence (A0ABM0GNT8 1-458)": "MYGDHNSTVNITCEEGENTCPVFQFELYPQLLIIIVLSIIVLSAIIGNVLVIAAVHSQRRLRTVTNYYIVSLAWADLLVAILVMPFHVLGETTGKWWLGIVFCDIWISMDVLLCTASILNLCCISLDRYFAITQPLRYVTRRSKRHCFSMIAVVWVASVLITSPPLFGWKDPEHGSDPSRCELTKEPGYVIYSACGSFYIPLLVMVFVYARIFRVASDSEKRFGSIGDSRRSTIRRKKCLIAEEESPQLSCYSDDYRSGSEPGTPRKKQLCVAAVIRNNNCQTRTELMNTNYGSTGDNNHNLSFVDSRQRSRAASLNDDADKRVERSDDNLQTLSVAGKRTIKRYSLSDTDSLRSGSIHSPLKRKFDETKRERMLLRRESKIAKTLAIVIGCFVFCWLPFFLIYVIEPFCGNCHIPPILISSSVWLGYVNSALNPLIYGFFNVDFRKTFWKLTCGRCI", "format": "cell-based", "excerpt": "Ca2+ mobilization, GFP-apoaequorin luminescence in CHO-K1 with Gα-16 on S. kowalevskii Tyramine-2A"}}, "note": "Read-outs that look alike come from different tables or passages of the source."}
{"smiles": "Clc1cccc(Cl)c1NC1=NCCN1", "note": "[clonidine]", "values": [{"measurement": "EC50", "setting": "[1]; read-out: Clonidine", "result": 160, "unit": "nM"}, {"measurement": "EC50", "setting": "[2]; read-out: Clonidine", "result": 140, "unit": "nM"}]}
{"smiles": "NC[C@H](O)c1ccc(O)cc1", "note": "[octopamine]", "values": [{"measurement": "EC50", "setting": "[1]; read-out: Octopamine", "result": 690, "unit": "nM"}, {"measurement": "EC50", "setting": "[2]; read-out: Octopamine", "result": 260, "unit": "nM"}]}
{"smiles": "COC(=O)[C@@H]1[C@H]2C[C@H]3c4[nH]c5ccccc5c4CCN3C[C@@H]2CC[C@@H]1O", "note": "[yohimbine]", "values": [{"measurement": "IC50", "setting": "[2]; read-out: Yohimbine", "result": 9, "unit": "nM"}]}
{"smiles": "NCCc1ccc(O)cc1", "note": "[tyramine]", "values": [{"measurement": "EC50", "setting": "[3]", "result": 86000, "unit": "nM"}, {"measurement": "EC50", "setting": "P. dumerilii Tyramine-1", "result": 11, "unit": "nM"}, {"measurement": "EC50", "setting": "P. dumerilii Tyramine-2", "result": 7, "unit": "nM"}, {"measurement": "EC50", "setting": "[4]", "result": 5.9, "unit": "nM"}, {"measurement": "EC50", "setting": "[5]", "result": 1, "unit": "nM"}]}
